For series [1], the system named is MIA PaCa-2. Kind of series: Cytotoxicity against human MiaPaCa2 cells after 7 days by MTT assay. The class given is functional. As to conditions: MIA PaCa-2, 168 h, read-out: ED50 (the source's name). Background: Tetrazolium assays rely on reduction of a dye to a coloured formazan, in cell work by metabolically active cells.
In series [2] the test system is HT-29. Description: Cytotoxicity against human HT29 cells after 7 days by MTT assay. In kind it is functional. As to conditions: HT-29, 168 h, read-out: ED50 (the source's name).
For series [3], the system named is A498. Kind of series: Cytotoxicity against human A498 cells after 7 days by MTT assay. In kind it is functional. As to conditions: A498, 168 h, read-out: ED50 (the source's name).
Series [4] deals with MCF7. Description: Cytotoxicity against human MCF7 cells after 7 days by MTT assay. In kind it is functional. As to conditions: MCF7, 168 h, read-out: ED50 (the source's name).
Series [5] has as its system A549. Description: Cytotoxicity against human A549 cells after 7 days by MTT assay. In kind it is functional. Conditions: A549, 168 h, read-out: ED50 (the source's name).
For series [6], the system named is PC-3. Kind of series: Cytotoxicity against human PC3 cells after 7 days by MTT assay. In kind it is functional. As to conditions: PC-3, 168 h, read-out: ED50 (the source's name).
Series [7] can be described thus: Toxicity in brine shrimp. In kind it is organism-based. Conditions: artemia, in vivo.

The text below walks through data of ChEMBL document CHEMBL1155621, “Asitrocin, (2,4)-cis- and trans-asitrocinones: novel bioactive mono-tetrahydrofuran acetogenins from Asimina triloba seeds” (J Nat Prod, 2000).

By LC50 is commonly meant the concentration lethal to half of the exposed cells or organisms.

Each structure is given as a SMILES string. In brackets after ≈: the same amount, converted by molar mass.

Consider `COc1cccc2c1C(=O)c1c(O)c3c(c(O)c1C2=O)C[C@@](O)(C(=O)CO)C[C@@H]3O[C@H]1C[C@H](N)[C@H](O)[C@H](C)O1` [DOXORUBICIN], for which the EC50 in series [1] stood at 6.1 ng/mL (≈ 11.2 nM).

Regarding `CCCCCCCCCCCC[C@@H](O)[C@H]1CC[C@H]([C@@H](O)CC[C@H](O)CCCCCCC[C@@H](O)CC2=C[C@H](C)OC2=O)O1` [ASITROCIN], the EC50 came out at 2.99 ng/mL (≈ 5.01 nM) in series [2]; 79.2 ng/mL (≈ 133 nM) in series [3]; 3280 ng/mL (≈ 5500 nM) in series [4]; 0.0148 ng/mL (≈ 0.0248 nM) in series [1]; 118 ng/mL (≈ 198 nM) in series [5]; 1.22 ng/mL (≈ 2.04 nM) in series [6]. The LC50 in series [7] stood at 63 ng/mL (≈ 106 nM).
